According to US20080069795A1, “Amelioration of Drug-Induced Toxicity” (The John Hopkins University, priority 2004, published 2008):

Tests used:
[1] = system: wild type, nu/nu, CD4-/- and CD8-/- mice; assay: Survival of mice after a single i.p. dose of cisplatin; assay type: in vivo, mouse; settings: for survival rate: cisplatin 40 mg/kg i.p. single dose; for survival rate / survival: 72 hr
Protocol: All animal study protocols have been reviewed and approved by the Animal Care and Use Committee of Johns Hopkins University (IACUC), and all experiments were conducted according to NIH guidelines. T cell deficient athymic male mice (B6.Cg-Foxn1^nu, nu/nu) and their C57BL/6 wild type male littermates (6-8 wks, weighing 20-25 g) were purchased from The Jackson Laboratory (Bar Harbor, Me., USA). The two main defects of T cell deficient mice homozygous for the nu/nu spontaneous mutation (Foxn/nu, formerly Hfh11nu) are the abnormal hair growth and defective development of the thymus. Consequently, homozygous nu/nu mice lack T cells and cell-mediated immunity. Genetically matched wild type male littermates were used as controls and as donors of T cells adoptive transfer. CD4-deficient mice (B6.129S2-Cd4tm1Mak), CD8-deficient mice (B6.129S2-Cd8atm1Mak) and their wild type littermates were also purchased from The Jackson Laboratory. Mice were held under pathogen-free conditions in JHMI animal facility with air conditioning, 14 hr/10 hr of light and dark cycle and were free access to food and water during the experiments.
(§1) Cisplatin (cis-diammineplatinum II dichloride, Sigma-Aldrich, St.Louis, Mo.) was dissolved in 0.9% of saline at a concentration of 1 mg/ml. Mice were given a single i.p. injection either with cisplatin (40 mg/kg body weight) or with equal volume of saline. […] For kidney T cell immunohistochemical staining, three wild type mice in each group were sacrificed at 1 hr, 6 hr, 12 hr, 24 hr or 72 hr after cisplatin injection. All nu/nu or knockout mice and their littermates were sacrificed at 24 hr or 72 hr after the cisplatin administration for histology or for kidney cytokine array. All collected mice kidneys were either fixed in 10% buffered formalin for histology/immunohistochemistry, or snap frozen with liquid nitrogen for tissue cytokine array.
Data are expressed as mean±standard error of mean (SEM) and are compared by unpaired, two-tailed Student t tests for single comparison or by ANOVA Post Hoc test for multiple comparison. Kaplan-Meier analysis was used for mice survival analyses. Statistical significance of difference was defined when the P-value was less than 0.05.

[2] = system: wild type, nu/nu, CD4-/- and CD8-/- mice; assay: Assessment of renal function (serum creatinine) after cisplatin; assay type: in vivo, mouse
Protocol: as §1
Blood samples were obtained from mice tails prior to (0 hr) and at 24 hr, 48 hr and 72 hr after cisplatin injection. Serum creatinine was measured as a marker of renal dysfunction by a Roche Cobas Fara automated system (Roche, Nutley, N.J., USA) using a Creatinine 557 kit (Sigma Diagnostics, St. Louis, Mo., USA).

[3] = system: mice kidneys; assay: Histological examination, semi-quantitative renal tubular injury score after cisplatin; assay type: in vivo, mouse; settings: 72 hr after cisplatin 40 mg/kg, scale 0-4
Protocol: as §1
Formalin-fixed paraffin-embedded sections of mice kidneys tissues were cut and stained with hematoxylin and eosin (H&E). Renal tubular injury was assessed using a semi-quantitative scale. A pathologist blinded to the experiments scored the degrees of tubular injury. The magnitude of tubular epithelial cell loss, necrosis, intra-tubular debris and tubular cast formation was scored into six levels based on the percentage of affected tubules in a high power field (HPF) under light microscope. (0: none; 0.5: <10%; 1: 10 to 25%; 2: 25 to 50%; 3: 50 to 75%; 4: >75%).

[4] = system: CD3 positive cells in mice kidney; assay: Immunohistochemical staining of T cells (CD3) in post cisplatin kidneys; assay type: in vivo, mouse; settings: wild type mice
Protocol: as §1
In order to evaluate T cell infiltrating into post cisplatin kidneys as a potential mechanism of action, immunohistochemical staining for T cell was performed on formalin-fixed kidney tissue. Briefly, after deparaffinization and rehydration, kidney sections were immersed in 3% hydrogen peroxide methanol for 5 minutes to block endogenous peroxidase. […] All cisplatin kidney sections were examined by a pathologist and a nephrologist in a blinded fashion, and CD3 positive cells were counted in at least 10 cortico-medulary fields.

[5] = system: renal myeloperoxidase (MPO) activity; assay: Kidney myeloperoxidase assay after cisplatin; assay type: in vivo, mouse; settings: 72 hr after cisplatin
Protocol: Renal myeloperoxidase (MPO) activity was measured as described by Laight et al. (18) in the nu/nu mice and wild type mice at 72 hr after receiving cisplatin to semi-quantify neutrophils and macrophages infiltration. Briefly, kidney tissue was homogenized in a solution containing 0.5% (wt/vol) hexadecyltrimethylammonium bromide dissolved in 50 mM potassium phosphate buffer (pH 6.0) and centrifuged for 30 min at 20,000 g at 4° C. Samples were incubated in a water bath at 60° C. for 2 hr and then centrifuged at 4,000 g for 12 min. The collected supernatant (40 μl) in each sample was incubated with 160 μl of a reaction solution containing 1.6 mM tetramethylbenzidine and 3 mM H2O2 diluted in 80 mM phosphate buffer (pH 5.4) in a 96-well microplate. The rate of change in absorbance at 630 nm over 5 min was measured spectrophotometrically. MPO activity was expressed as absorbance changed per minute per 100 mg of wet tissue.

[6] = system: IL-1β, KC, IFN-γ and TNF-α in the mouse kidney; assay: Kidney cytokine protein array after cisplatin; assay type: in vivo
Protocol: as §1
In order to examine pro-inflammatory molecules generated by cisplatin, protein levels of IL-1β, IFN-γ, TNF-α and KC was measured in the mice kidney by using Bio-Rad Bio-Plex™ multiple cytokines array technique (Bio-Rad Laboratories Inc., Hercules, Calif.) described elsewhere in depth (19) with a simplified small template containing only above four cytokine/chemokines. Briefly, snap frozen kidney tissues were homogenized in a kit-attached cell-lysis buffer, and the homogenates were centrifuged at 12,000 rpm for 15 min at 4° C. Total protein concentration in each supernatant was determined by using a Bio-Rad Protein Assay I(it, and was adjusted to 500 μg/ml with the cell lysis buffer. Each sample was first incubated with a mixture of all types of micro-beads for 90 min at room temperature (RT) followed by an incubation with biotinylated detection antibodies for 30 min and then with a strepavidin-coupled phycoerythrin for 10 min (RT). Finally, the samples were subjected to a flow cytometric system. All acquired data was analyzed using Bio-Plex Manager™ 3.0 software (Bio-Rad) and corrected by total protein concentration (pg/mg protein).

[7] = system: patients; settings: after a single dose of cisplatin; cited from earlier work
[8] = wild type mice, 72 hr after cisplatin injection

N.N.[Cl][Pt][Cl] [cisplatin, cis-diamminedichloroplatinum II]
survival rate ([1]; C57BL/6 wild type littermates of nu/nu mice): 58%
survival ([1]; CD4-/- mice, cisplatin 40 mg/kg i.p.): 100%
mice died by 72 hr after cisplatin treatment ([1]; CD4 deficient mice, cisplatin 40 mg/kg i.p.): 0/6
survival ([1]; CD8-/- mice, cisplatin 40 mg/kg i.p.): 80%
mice died by 72 hr after cisplatin treatment ([1]; CD8 deficient mice, cisplatin 40 mg/kg i.p.): 1/6
survival rate ([1]; nu/nu (T cell deficient) mice): 100%
survival ([1]; nu/nu mice with T cells transfer, cisplatin 40 mg/kg): 80%
mice dead by 72 hr after injection ([1]; nu/nu mice, cisplatin 40 mg/kg i.p.): 0/12
survival ([1]; wild type littermates of CD4-/- and CD8-/- mice, cisplatin 40 mg/kg i.p.): 50%
mice died by 72 hr after cisplatin treatment ([1]; wild type littermates of CD4/CD8 deficient mice, cisplatin 40 mg/kg i.p.): 7/12
mice dead by 72 hr after injection ([1]; wild type littermates of nu/nu mice, cisplatin 40 mg/kg i.p.): 6/14
SCr ([2]; CD4-/- mice, 24 hr post cisplatin 40 mg/kg i.p.): 0.50 ± 0.07 mg/dL
SCr ([2]; CD8-/- mice, 24 hr post cisplatin 40 mg/kg i.p.): 0.67 ± 0.08 mg/dL
serum creatinine ([2]; nu/nu mice alone, 72 hr after cisplatin 40 mg/kg): 0.58 ± 0.06 mg/dL
serum creatinine ([2]; nu/nu mice transferred with T cells, 72 hr after cisplatin 40 mg/kg): 1.23 ± 0.11 mg/dL
serum creatinine ([2]; nu/nu mice, 24 hr after cisplatin 40 mg/kg): 0.60 ± 0.05 mg/dL
serum creatinine ([2]; nu/nu mice, 48 hr after cisplatin 40 mg/kg): 0.56 ± 0.05 mg/dL
serum creatinine ([2]; wild type mice, 24 hr after cisplatin 40 mg/kg (nu/nu study)): 1.05 ± 0.11 mg/dL
SCr ([2]; wild type mice, 24 hr post cisplatin 40 mg/kg i.p. (CD4/CD8 study)): 1.74 ± 0.25 mg/dL
serum creatinine ([2]; wild type mice, 48 hr after cisplatin 40 mg/kg): 2.09 ± 0.49 mg/dL
serum creatinine ([2]; wild type mice, 72 hr after cisplatin 40 mg/kg): 3.61 ± 0.32 mg/dL
renal tubular injury score ([3]; nu/nu mice): 0.22±0.08
renal tubular injury score ([3]; wild type mice): 1.44±0.15
CD3 positive cells in the kidney ([4]; as early as 1 hr post cisplatin, vs saline): markedly increased
time of peak of kidney T cell increase ([4]; single dose of cisplatin, declined by 24 hr): 12 h
increase in renal MPO activity ([5]; nu/nu mice compared with wild type mice): significantly blunted
renal MPO activities ([5]; wild type and nu/nu mice, vs individual saline controls): significant increase
expression of pro-inflammatory molecules (IL-1β, KC, TNF-α) in the kidney ([6]; nu/nu mice treated with cisplatin compared to wild type mice): reduced expression
renal IFN-γ protein levels ([6]; wild type and nu/nu mice, any time point (24 hr, 72 hr) after cisplatin): no increase
renal IL-1β protein level [6, 8]: 53.43±2.61 pg/mg protein
renal KC protein level [6, 8]: 338.30±27.04 pg/mg protein
renal TNF-α protein level [6, 8]: 707.40±66.28 pg/mg protein
patients who developed renal dysfunction [7]: 25-30%
